Earlier results, collected in article PMC4433633, “A Heparan Sulfate-Binding Cell Penetrating Peptide for Tumor Targeting and Migration Inhibition” (BioMed Research International, 2015).

Settings: ref [56]
Description: Although CPPs as noninvasive agents have promising biomedical potential for molecular delivery, they are mostly unfeasible for in vivo researches due to nonspecificity of their highly cationic characteristic such as TAT peptide. Due to high uptake rates in vitro and relatively low specificity in vivo of most CPPs, conventional CPPs would be designed for topical applications in CPP-based delivery (Table 1). […] Although TAT peptide (46–57) de ...

For “SYGRKKRRQRRR [TAT peptide (46–57), multifunctional CPP […]]”, the “target specificity in vivo” value is listed as “low target specificity in vivo”.
